Test results: BindingDB's records for PubMed 7562491 (Zeneca Pharmaceuticals, 1995)
Where “and” joins values, the source holds several entries; their conditions need not be identical. Equal entries are not always repeated.

Tests used:
Substance-K receptor [1] = biological target: T1, Substance-K receptor (Homo sapiens, UniProt P21452)
T1 sequence (P21452 whole entry): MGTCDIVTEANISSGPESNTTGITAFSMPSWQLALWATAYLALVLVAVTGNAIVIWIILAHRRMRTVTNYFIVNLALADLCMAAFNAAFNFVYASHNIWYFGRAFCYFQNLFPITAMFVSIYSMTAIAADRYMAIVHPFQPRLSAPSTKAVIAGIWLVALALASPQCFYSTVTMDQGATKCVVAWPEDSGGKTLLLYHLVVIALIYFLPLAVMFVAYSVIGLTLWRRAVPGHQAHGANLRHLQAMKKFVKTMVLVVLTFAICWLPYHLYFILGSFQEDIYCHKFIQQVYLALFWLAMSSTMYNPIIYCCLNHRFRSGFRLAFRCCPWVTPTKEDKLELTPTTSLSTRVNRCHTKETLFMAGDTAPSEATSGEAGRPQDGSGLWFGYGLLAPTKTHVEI

Substance-P receptor = Substance-P receptor (Cavia porcellus, UniProt P30547)
Substance-K receptor [2] = biological target: T2, Substance-K receptor (Mesocricetus auratus, UniProt P51144)
T2 sequence (P51144 whole entry): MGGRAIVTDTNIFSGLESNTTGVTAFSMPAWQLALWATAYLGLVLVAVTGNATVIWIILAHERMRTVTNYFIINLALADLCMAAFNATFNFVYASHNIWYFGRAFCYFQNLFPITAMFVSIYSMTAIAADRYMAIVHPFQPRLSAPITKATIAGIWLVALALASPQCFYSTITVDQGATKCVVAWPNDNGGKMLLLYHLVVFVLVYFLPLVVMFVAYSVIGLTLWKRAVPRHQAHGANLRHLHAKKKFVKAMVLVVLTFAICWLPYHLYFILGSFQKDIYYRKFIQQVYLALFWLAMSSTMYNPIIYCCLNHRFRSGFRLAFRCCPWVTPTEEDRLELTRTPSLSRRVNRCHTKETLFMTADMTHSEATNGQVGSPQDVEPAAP

Sequence of Substance-P receptor (P30547 whole entry): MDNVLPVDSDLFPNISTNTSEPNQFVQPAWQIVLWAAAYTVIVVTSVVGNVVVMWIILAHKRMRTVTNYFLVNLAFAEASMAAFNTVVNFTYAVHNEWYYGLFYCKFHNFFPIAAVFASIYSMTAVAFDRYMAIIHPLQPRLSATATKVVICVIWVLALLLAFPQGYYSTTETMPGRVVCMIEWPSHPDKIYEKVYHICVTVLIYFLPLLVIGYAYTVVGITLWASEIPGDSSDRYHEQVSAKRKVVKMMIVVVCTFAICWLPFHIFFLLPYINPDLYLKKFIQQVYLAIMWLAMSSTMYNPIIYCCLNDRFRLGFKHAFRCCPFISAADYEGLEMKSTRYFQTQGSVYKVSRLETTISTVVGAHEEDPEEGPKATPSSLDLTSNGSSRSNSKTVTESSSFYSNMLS

| Ki (Substance-K receptor [1]) | Ki (Substance-P receptor) | Ki (Substance-K receptor [2]) | SMILES |
| --- | --- | --- | --- |
| 0.105 µM | 9.77 µM | 0.0022 µM and 0.002 µM | CC(N=O)C(=O)N1CCN(c2nc(Nc3ccc(Cl)cc3)c3c(n2)C(=O)N(C(C)C)C3)CC1 (configuration not stated) [ZM253,270] |
| 0.188 µM | – | 0.018 µM and 0.017 µM | CC(C)N1Cc2c(Nc3ccc(Cl)cc3)nc(N3CCN(C(=O)Cc4[nH]c(=O)[nH]c4O)CC3)nc2C1=O [COMPOUND I] |
| 0.187 µM | – | 0.041 µM and 0.039 µM | O=C1c2nc(N3CCOCC3)nc(Nc3ccc(Cl)cc3)c2CN1CCN1CCOCC1 [COMPOUND II] |
